Article PMC6796659, “Topoisomerase IB poisons induce histone H2A phosphorylation as a response to DNA damage in Leishmania infantum” (International Journal for Parasitology: Drugs and Drug …, 2019)
Where two headings read alike, the source gives them in different places.

Tests used:
[1] = tested on: histone H2A (Thr128) in L. infantum promastigotes; assay: Histone H2A phosphorylation (γH2A) by Western blot; format: cell-based, Leishmania infantum; settings: 10 μM, 0, 15, 60, 120 min
Protocol: To detect H2A phosphorylation by L. infantum promastigotes, parasites in exponential growing phase (5–6 x 10^6 cells/mL) were incubated at 26 °C with CPT derivatives and indenoisoquinolines at a final concentration in the supplemented 199 standard medium of 10 μM. Control cells were treated with the drug vehicle DMSO using concentrations below 0.1%. After 0, 15, 60 and 120-min incubations, promastigotes were harvested by centrifugation, washed twice in PBS and the pellet resuspended in lysis buffer containing 50 mM Tris (pH:7), 50 mM NaCl, 20 mM NaF, 0.1% Tween 20 and 2x protease inhibitors (PIERCE™ protease inhibitor mini tablets). Twenty micrograms of the different extracts were loaded onto 15% SDS-PAGE gels, electrophoresed and transferred to PVDF membranes (Immobilon-FL, Millipore) using a mini trans-blot electrophoretic transfer cell (Bio-Rad). Polyclonal γH2A antisera were used at a 1:2000 dilution and secondary goat anti-rabbit IgG IRDye680 (Li-Cor Biosciences) was used at a 1:15000 dilution. The peptide competition assay was done incubating the polyclonal γH2A antisera with 50 ng/mL of the appropriate peptide (with and without phosphorylation at Thr residue) in blocking buffer for 1 h at room temperature before blotting. Loading control was performed using a monoclonal α tubulin mouse antibody at 2 μg/mL (final concentration) and a goat anti-mouse IgG IRDye 800 (Li-Cor Biosciences) as secondary antibody. Bands were visualized in an Odissey® (Li-Cor Biosciences) infrared detection facility. The quantification of γH2A signal was done with Bio-Rad Quantity One Analysis Software.

[2] = tested on: iRFP L. infantum amastigotes infecting mouse splenocytes; settings: ref Prada et al., 2013; cited from earlier work
[3] = tested on: iRFP L. infantum promastigotes; assay: Antileishmanial activity on free-living iRFP L. infantum promastigotes (infrared fluorescence viability); format: cell-based; settings: Leishmania infantum, 72 h, 26 °C
Protocol: Histone phosphorylation assays were performed in promastigotes of L. infantum BCN 150 strain, whereas the antiparasitic activity of the compounds was assessed on the transgenic strain that constitutively expresses the irfp gene encoding the infrared iRFP protein (iRFP L. infantum strain) ([Calvo-Álvarez et al., 2015]), which is derived from L. infantum BCN 150. Both strains were grown at 26 °C in M-199 medium (Gibco) supplemented with 25 mM HEPES pH 7.2, 0.1 mM adenine, 0.0005% (w/v) hemin, 2 μg/mL biopterin, 0.0001% (w/v) biotin, 10% (v/v) heat-inactivated fetal bovine serum (FBS) and an antibiotic cocktail comprising 50 U/mL penicillin and 50 μg/mL streptomycin.
(§1) The antileishmanial activity of the compounds was tested both in promastigotes and in amastigotes infecting mouse splenocytes. For this purpose, 384-well optical bottom black plates (Thermo Scientific) were seeded either with free-living iRFP L. infantum promastigotes or with splenic explants infected with iRFP L. infantum amastigotes, which were incubated at 26 °C or 37 °C, respectively. The viability of both iRFP L. infantum stages was measured by recording the fluorescence emitted by viable cells at 708 nm in an Odyssey (Li-Cor) infrared imaging system after a 72-h period of incubation with different concentrations of the compounds. Dose-response curves were obtained by plotting the infrared fluorescence emission of viable parasites vs. different concentrations of testing compounds and were fitted by nonlinear analysis using the Sigma-Plot 10.0 statistical package. The reduction of infrared emission with respect to the negative control was used to determine the 50% effective concentration to kill the parasites (EC50). Both controls and treated groups were tested with DMSO (drug vehicle) concentrations below 0.1%. All compounds and controls were assayed in triplicate.

[4] = tested on: iRFP L. infantum amastigotes infecting mouse splenocytes; assay: Antileishmanial activity on iRFP L. infantum amastigotes in ex vivo murine splenic explants; format: cell-based, Leishmania infantum; settings: for EC50: Leishmania infantum, Splenocyte, splenic-infecting iRFP L. infantum amastigotes, 72 h, 37 °C, read-out: EC50 (μM) L. infantum amastigotes; for SI (Selectivity Index): CC50 (splenocytes)/EC50 (amastigotes)
Protocol: Five-week BALB/c female mice infected intraperitoneally with 1.5 × 10^9 metacyclic iRFP L. infantum promastigotes were sacrificed to eviscerate their spleens, which were processed to obtain a suspension of primary splenocytes. Briefly, freshly dissected spleens were washed with cold phosphate-buffered saline (PBS), cut in small pieces and incubated for 20 min with 5 mL of 2 mg/mL collagenase D (Sigma) prepared in buffer (10 mM HEPES, pH 7.4, 150 mM NaCl, 5 mM KCl, 1 mM MgCl2 and 1.8 mM CaCl2). Then, the cell suspension was passed through a 100 μm cell strainer, harvested by centrifugation (500×g for 7 min at 4 °C), washed twice with PBS, and resuspended in RPMI medium (Gibco) supplemented with 10 mM HEPES, 1 mM sodium pyruvate, 1xRPMI 1640 vitamin mix, 10% (v/v) FBS, 50 U/mL penicillin and 50 μg/mL streptomycin. The cell suspension was cultured in 384-well optical bottom black plates (Thermo Scientific) at 37 °C under 5% CO2 atmosphere.
as §1

[5] = Cytotoxicity on uninfected mouse splenocytes (Alamar Blue); format: cell-based; settings: BALB/c, freshly isolated uninfected mouse splenocytes, non-infected mouse splenocytes, read-out: CC50 (μM) Murine Splenocytes
Protocol: Finally, the cytotoxicity of the compounds was assessed on freshly-isolated mouse splenocytes, which were obtained from uninfected BALB/c mice according to the protocol previously described. Viability of uninfected splenocytes was used to determine the cytotoxic concentration 50 (CC50) by means of the Alamar Blue staining method, according to manufacturer's recommendations (Invitrogen). Selectivity index (SI) for each compound was calculated as the ratio between the CC50 value obtained for splenic cells and the EC50 value for amastigotes.

[6] = tested on: Leishmania topoisomerase IB (LTopIB); assay: Relaxation of supercoiled pSK DNA by recombinant LTopIB; format: biochemical
Protocol: (§2) Expression and purification of LTopIB and hTopIB were carried out according to a previously standardized protocol ([Villa et al., 2003]). The effect of indenoisoquinolines (compounds 1 to 20) on recombinant LTopIB and hTopIB was determined by measuring the relaxation of negatively supercoiled pBluescript-SK DNA plasmid (pSK). Briefly, in a total volume of 20 μL, 100 U of recombinant TopIB were incubated with 0.5 μg of pSK DNA in 10 mM Tris-HCl buffer (pH 7.5), 5 mM MgCl2, 5 mM dithiothreitol (DTT), 0.1 mM EDTA, […] bovine serum albumin, and 150 mM KCl. Different concentrations of indenoisoquinolines were also added. Following a 4-min incubation period at 25 °C, reactions were stopped with 1% (w/v) SDS, and incubated for one extra hour at 37 °C in the presence of 1 mg/mL proteinase K. Subsequently, samples were extracted with 1 vol phenol-chloroform mixture and were loaded on a 1% agarose gel containing 0.1 μg/mL ethidium bromide. The gel was run for 16 h at 4 V/cm, and the images were acquired using a G-Box system (Syngene, United Kingdom).

[7] = target: T1, human Top IB (hTopIB) (Homo sapiens, UniProt P11387); assay: Relaxation of supercoiled pSK DNA by recombinant hTopIB; format: biochemical
T1 construct: made in house
T1 sequence (P11387 1-765): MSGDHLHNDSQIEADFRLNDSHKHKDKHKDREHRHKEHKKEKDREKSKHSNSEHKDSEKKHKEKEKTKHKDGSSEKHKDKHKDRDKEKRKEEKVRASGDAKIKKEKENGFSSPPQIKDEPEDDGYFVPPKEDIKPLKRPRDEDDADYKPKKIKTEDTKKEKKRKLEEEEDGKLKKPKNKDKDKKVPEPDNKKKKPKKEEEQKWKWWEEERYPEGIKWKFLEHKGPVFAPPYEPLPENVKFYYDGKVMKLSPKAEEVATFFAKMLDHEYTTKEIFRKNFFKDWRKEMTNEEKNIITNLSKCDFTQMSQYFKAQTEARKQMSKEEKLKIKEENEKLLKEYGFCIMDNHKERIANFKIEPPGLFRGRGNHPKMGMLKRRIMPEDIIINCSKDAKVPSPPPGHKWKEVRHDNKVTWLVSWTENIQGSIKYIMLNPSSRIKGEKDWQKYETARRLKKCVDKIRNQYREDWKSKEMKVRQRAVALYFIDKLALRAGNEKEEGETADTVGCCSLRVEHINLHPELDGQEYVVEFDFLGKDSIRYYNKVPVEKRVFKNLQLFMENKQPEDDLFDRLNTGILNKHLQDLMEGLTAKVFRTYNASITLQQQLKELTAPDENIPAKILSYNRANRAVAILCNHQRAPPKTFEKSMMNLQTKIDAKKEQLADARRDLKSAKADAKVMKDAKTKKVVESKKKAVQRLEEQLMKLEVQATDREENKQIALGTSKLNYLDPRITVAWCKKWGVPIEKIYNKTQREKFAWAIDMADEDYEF
Protocol: as §2

[8] = tested on: L. infantum promastigotes; assay: Cell cycle analysis by flow cytometry (propidium iodide); format: cell-based, Leishmania infantum; settings: 1 μM single dose, 0, 8, 24, 48 h
Protocol: One million promastigotes untreated or treated with 1 μM of different indenoisoquinolines were harvested by centrifugation after 0, 8, 24 and 48 h exposure. Promastigotes were washed twice with PBS and fixed by 1 h incubation with 70% methanol at 4 °C. After incubation, cells were centrifuged, washed again with PBS and resuspended in 0.5 mL of citrate buffer (45 mM MgCl2, 20 mM MOPS, 30 mM sodium citrate, 0.1% Triton X-100, pH = 7). Finally, samples with RNAase (50 μg/mL) and propidium iodide ([…]) were incubated at 37 °C during 30 min and analyzed at 589 nm by flow cytometry (Cyan ADP Dako).

[9] = tested on: TopIB-DNA complexes in L. infantum promastigotes; assay: SDS/K-DNA precipitation (in situ cleavage complex formation); format: cell-based, Leishmania infantum; settings: 30 min exposure, promastigotes
Protocol: In order to measure the fragmentation of DNA induced by Top poisons, L. infantum promastigotes, previously labeled with 0.5 mCi/mL [2–^14C] thymidine for 24 h, were exposed to different concentrations of indenoisoquinolines for 30 min, followed by precipitation with SDS/KCl, according to the method described previously ([Balaña-Fouce et al., 2012]). DNA fragmentation was determined as the percentage of total labeled DNA, and was calculated as follows: [(dpm in SDS/KCl drug - dpm in SDS/KCl solvent)/(dpm total incorporation)] x 100. Each experiment was run at least in triplicate.

SMILES | γH2A signal (H2A phosphorylation), Western blot [1] | EC50 [3] [µM] | EC50 [4] [µM] | CC50 [5] [µM] | effect on cell cycle of promastigotes [8] | SI (Selectivity Index) [4] | further results
CC[C@@]1(O)C(=O)OCc2c1cc1n(c2=O)Cc2cc3ccccc3nc2-1 [CPT, camptothecin] | clear increase in the intensity of the 14-kDa band | – | – | – | – | – | EC50 [2]: 30 nM
COc1ccc2c(c1)C(=O)c1c-2n(CCCN)c(=O)c2cc([N+](=O)[O-])ccc12 [Compound 3] | – | 0.2 ± 0.01 | > 10 | 0.41 ± 0.19 | arrested the cell cycle of promastigotes in S phase | – | LTopIB inhibition ([6]; Table 1): ++ (inhibition at 10 μM); hTopIB inhibition ([7]; Table 1): +++ (inhibition at 1 μM)
NCCCn1c2c(c3ccc([N+](=O)[O-])cc3c1=O)C(=O)c1cc(F)ccc1-2 [Compound 7] | – | 1.28 ± 0.08 | 0.04 | 0.3 ± 0.07 | arrested the cell cycle of promastigotes in S phase | 8.4 | LTopIB inhibition ([6]; Table 1): ++ (inhibition at 10 μM); hTopIB inhibition ([7]; Table 1): +++ (inhibition at 1 μM); maximum percentage of SDS/K-DNA precipitable complexes [9]: 33%
COc1ccc2c(c1)C(=O)c1c-2n(CCCn2ccnc2)c(=O)c2cc([N+](=O)[O-])ccc12 [Compound 12] | – | > 10 | 0.01 | 0.33 ± 0.05 | arrested the cell cycle of promastigotes in S phase | 33 | LTopIB inhibition ([6]; Table 2): ++ (inhibition at 10 μM); hTopIB inhibition ([7]; Table 2): +++ (inhibition at 1 μM)
COc1cnc2c(c1)C(=O)c1c-2n(CCCN2CCOCC2)c(=O)c2ccc(OC)cc12 [Compound 17] | – | 2.92 ± 0.44 | 0.27 ± 0.08 | 7.84 ± 0.77 | arrested the cell cycle of promastigotes in S phase | 29.0 | LTopIB inhibition ([6]; Table 3): +++ (inhibition at 1 μM); hTopIB inhibition ([7]; Table 3): +++ (inhibition at 1 μM)
COc1cnc2c(c1)C(=O)c1c-2n(CCCN2CCOCC2)c(=O)c2cc(OC)c(OC)cc12 [Compound 18] | – | 0.53 ± 0.07 | 0.13 ± 0.01 | 3.81 ± 0.51 | arrested the cell cycle of promastigotes in S phase | 29.3 | LTopIB inhibition ([6]; Table 3): ++ (inhibition at 10 μM); hTopIB inhibition ([7]; Table 3): ++ (inhibition at 10 μM)
CCc1c2c(nc3ccc(O)cc13)-c1cc3c(c(=O)n1C2)COC(=O)[C@]3(O)CC [SN38] | clear increase in the intensity of the 14-kDa band | – | – | – | – | – | –
CC[C@@]1(O)C(=O)OCc2c1cc1n(c2=O)Cc2cc3c(CN(C)C)c(O)ccc3nc2-1 [TPT, topotecan] | clear increase in the intensity of the 14-kDa band | – | – | – | – | – | –
